The target of the assay is T1, sGC α1/β1 heterodimer (Homo sapiens, UniProt Q02108+Q02153).
T1 construct: expressed in transfected cells; host or cells: CHO-K1 (clone #7, CHO-K1/sGC)
T1 sequence (Q02108 1-690): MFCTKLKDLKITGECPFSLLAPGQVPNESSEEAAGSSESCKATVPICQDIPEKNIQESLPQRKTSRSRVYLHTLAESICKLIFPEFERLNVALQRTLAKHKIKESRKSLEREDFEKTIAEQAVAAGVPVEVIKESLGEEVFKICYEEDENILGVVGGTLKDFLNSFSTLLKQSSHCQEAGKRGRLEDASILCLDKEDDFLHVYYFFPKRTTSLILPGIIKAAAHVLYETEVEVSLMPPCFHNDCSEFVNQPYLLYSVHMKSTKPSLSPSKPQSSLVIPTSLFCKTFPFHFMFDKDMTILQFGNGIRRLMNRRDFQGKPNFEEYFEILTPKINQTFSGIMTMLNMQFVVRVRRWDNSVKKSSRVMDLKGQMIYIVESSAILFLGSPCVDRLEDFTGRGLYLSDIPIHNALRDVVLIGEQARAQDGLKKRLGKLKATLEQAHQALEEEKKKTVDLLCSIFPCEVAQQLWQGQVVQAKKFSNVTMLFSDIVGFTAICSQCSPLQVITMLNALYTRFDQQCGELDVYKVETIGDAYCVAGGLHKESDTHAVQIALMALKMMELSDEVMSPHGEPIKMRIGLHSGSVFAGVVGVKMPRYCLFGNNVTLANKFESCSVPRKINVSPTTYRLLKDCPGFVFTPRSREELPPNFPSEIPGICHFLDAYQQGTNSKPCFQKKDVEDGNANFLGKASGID
T1 sequence (Q02153 1-619): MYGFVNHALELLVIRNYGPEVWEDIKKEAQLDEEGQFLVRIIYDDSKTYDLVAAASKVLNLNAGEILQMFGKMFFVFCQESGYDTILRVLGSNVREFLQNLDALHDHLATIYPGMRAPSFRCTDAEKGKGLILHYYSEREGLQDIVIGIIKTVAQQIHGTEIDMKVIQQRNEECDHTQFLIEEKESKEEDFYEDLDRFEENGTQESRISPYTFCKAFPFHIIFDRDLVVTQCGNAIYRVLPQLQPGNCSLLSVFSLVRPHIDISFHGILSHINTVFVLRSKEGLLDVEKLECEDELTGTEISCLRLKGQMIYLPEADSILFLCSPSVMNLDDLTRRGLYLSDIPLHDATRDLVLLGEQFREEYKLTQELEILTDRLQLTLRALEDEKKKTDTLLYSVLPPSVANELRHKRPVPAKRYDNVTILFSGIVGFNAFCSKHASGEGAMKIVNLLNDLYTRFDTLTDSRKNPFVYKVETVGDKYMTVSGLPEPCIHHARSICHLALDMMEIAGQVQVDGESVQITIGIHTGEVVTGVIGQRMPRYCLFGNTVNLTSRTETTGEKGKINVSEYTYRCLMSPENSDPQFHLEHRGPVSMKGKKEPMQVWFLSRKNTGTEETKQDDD
Kind of assay: Cell-based sGC functional assay (CASA assay): cGMP generation in CHO-K1/sGC cells, HTRF detection. The note with it: for Emax: CHO-K1, percent activation relative to standard Compound A in CHO-K1/sGC cells, read-out: % Act.; for EC50: inflection point (IP) of cGMP generation in CHO-K1/sGC cells, 4P fit, activity expressed as percentage of Compound A. An excerpt: Biological Assay 1: Cell-Based sGC Functional Assay (CASA Assay)
sGC is a heme-containing enzyme that converts GTP to secondary messenger cGMP. Increases in cGMP levels affect several physiological processes including vasorelaxation through multiple downstream pathways. […] Heme-dependent activators (HDAs) preferentially activate sGC containing a ferrous heme group. To determine the effect of sGC activators on enzyme activity, the CASA assay was developed to monitor the generation of cGMP in a cell line that stably expresses the heterodimeric sGC protein.
A CHO-K1 cell line stably expressing the sGC α1/β1 heterodimer was generated using a standard transfection protocol. CHO-K1 cells were transfected with plasmids pIREShyghsGCal and pIRESneo-hsGCβ1 simultaneously using FUGENE reagent. Clones that stably express both subunits were selected with hygromycin and neomycin for 2 weeks. Clone #7 was chosen for the assay and was designated CHO-K1/sGC. CHO-K1/sGC cells were maintained in F-K12 medium containing 10% heat-inactivated Fetal Bovine Serum (FBS), 100 μg/mL penicillin/streptomycin, 0.5 mg/mL hygromycin and 0.25 mg/mL G418. The cells were then cryopreserved in LN2. On the day of the assay, cells thawed and resuspended in EBSS Assay Buffer (Sigma, E3024) supplemented with 5 mM MgCl2, 10 mM HEPES (4-(2-hydroxyethyl)piperazine-1-ethanesulfonic acid) and 0.05% BSA (bovine serum albumin) (EAB) and cell density was then adjusted to 4×10^5/mL with EAR IBMX (3-isobutyl-1-methylxanthin, 0.5 mM) was added to inhibit degradation of cGMP. Compounds were diluted from DMSO stock solutions and added to the assay at a final DMSO concentration of 2.5%. Cells were incubated with compounds in the presence and absence of 1 μM of Diethylenetriamine/nitric oxide adduct (DETA-NO; Sigma, 17018) for 1 hr at 37° C. At the end of the incubation period, the reaction was terminated and the cells were lysed with the detection reagents from Cisbio Kits. The level of intracellular cGMP was determined using an HTRF-based assay kit (CisBio, 62GM2PEC), which detects the displacement of a fluorescence labeled cGMP from its specific antibody. The cGMP produced by test compounds was directly compared to the maximum cGMP production (this value was set to equal 100% activation.) of the published sGC-HDA Compound A:
[drawing 597] (Example 1 in WO 2010/065275, published Jun. 10, 2010). The test compounds' activities were then expressed as a percentage of Compound A, the standard in every experiment. This percent activation was calculated either in the presence or absence of DETA-NO which was then plotted. IP and maximum fold induction was derived using ADA analysis software for 4P fit.
The compounds in the Examples of the instant invention had inflection points (IP) less than or equal to 10 μM and more particularly less than or equal to about 1 μM.
Background: In TR-FRET formats the signal depends on donor and acceptor labels being close together.

As for `CC(C)(C)CCc1nc(-c2nc(N)c3c(n2)NC(=O)C3(C)c2ccc(Cl)cn2)cn2ccnc12` (stereo not drawn) [Example 123A, 4-amino-5-(5-chloropyridin-2-yl)-2-(8-(3,3-dimethylbutyl)imidazo[1,2-a]pyrazin-6-yl)-5-methyl-5H-pyrrolo[2,3-d]pyrimidin-6(7H)-one], the Emax was 105% and a half-maximal response (EC50) required 61 nM.

In the case of `COCCNc1nc(-c2cn3ccnc3c(CCC(F)(F)F)n2)nc2c1C(C)(c1ccc(Cl)cc1)C(=O)N2` (stereo not drawn) [Example 296A, 5-(4-chlorophenyl)-4-((2-methyoxyethyl)amino)-5-methyl-2-(8-(3,3,3-trifluoropropyl)imidazo[1,2-a]pyrazin-6-yl)-5H-pyrrolo[2,3-d]pyrimidin-6(7H)-one], the Emax was 77% and the midpoint of the response, the EC50, lay at 142 nM.

With `CCC1(C)C(=O)Nc2nc(-c3cn4ccnc4c(Cc4ccccc4)n3)nc(N)c21` (stereo not drawn) [Example 84A, 4-amino-2-(8-benzylimidazo[1,2-a]pyrazin-6-yl)-5-ethyl-5-methyl-5H-pyrrolo[2,3-d]pyrimidin-6(7H)-one], the Emax came out at 90% and the EC50 worked out at 58 nM.

With `Nc1nc(-c2cn3ccnc3c(CCCC(F)(F)F)n2)nc2c1C(c1ncc(Cl)cc1F)(C1CC1)C(=O)N2` (single isomer, unassigned) [Example 371A, 4-amino-5-(5-chloro-3-fluoropyridin-2-yl)-5-cyclopropyl-2-(8-(4,4,4-trifluorobutyl)imidazo[1,2-a]pyrazin-6-yl)-5H-pyrrolo[2,3-d]pyrimidin-6(7H)-one], the Emax was determined as 82% and the concentration for a half-maximal effect (EC50) amounted to 194 nM.

With `CC(C)Cc1nc(-c2nc(N)c3c(n2)NC(=O)C3(c2ccc(C(F)(F)F)cn2)C2CC2)cn2ccnc12` (stereo not drawn) [Example 127A, 4-amino-5-cyclopropyl-2-(8-isobutylimidazo[1,2-a]pyrazin-6-yl)-5-(5-(trifluoromethyl)pyridin-2-yl)-5H-pyrrolo[2,3-d]pyrimidin-6(7H)-one], the Emax worked out at 105% and a half-maximal response (EC50) required 518 nM.

In the case of `CN(C)C(=O)c1cccc(C2(C)C(=O)Nc3nc(-c4cn5ccnc5c(CCC(F)(F)C(F)(F)F)n4)nc(N)c32)c1` (stereo not drawn) [Example 271B, 3-(4-Amino-5-methyl-6-oxo-2-(8-(3,3,4,4,4-pentafluorobutyl)imidazo[1,2-a]pyrazin-6-yl)-6,7-dihydro-5H-pyrrolo[2,3-d]pyrimidin-5-yl)-N,N-dimethylbenzamide], the Emax worked out at 95% and the EC50 is 622 nM.

Regarding `CC1(c2ccc(F)cc2)C(=O)Nc2nc(-c3cn4c(Cl)cnc4c(CCC(F)(F)F)n3)nc(N)c21` (stereo not drawn) [Example 258A, 4-amino-2-(3-chloro-8-(3,3,3-trifluoropropyl)imidazo[1,2-a]pyrazin-6-yl)-5-(4-fluorophenyl)-5-methyl-5H-pyrrolo[2,3-d]pyrimidin-6(7H)-one], the Emax turned out to be 116% and the EC50 came out at 89 nM.

Consider `CC1(c2ccc(F)cc2)C(=O)Nc2nc(-c3cn4c(CCC5CCCCC5)cnc4cn3)nc(N)c21` (stereo not drawn) [Example 261A, 4-Amino-2-(3-(2-cyclohexylethyl)imidazo[1,2-a]pyrazin-6-yl)-5-(4-fluorophenyl)-5-methyl-5H-pyrrolo[2,3-d]pyrimidin-6(7H)-one], for which the Emax turned out to be 116% and it took 822 nM to reach a half-maximal effect (EC50).

As for `Nc1nc(-c2cn3cc(C(F)(F)F)nc3c(Cc3cccc(F)c3)n2)nc2c1C(C(=O)NC1CC1)(C1CC1)C(=O)N2` (stereo not drawn) [Example 44B, 4-amino-N,5-dicyclopropyl-2-(8-(3-fluorobenzyl)-2-(trifluoromethyl)imidazo[1,2-a]pyrazin-6-yl)-6-oxo-6,7-dihydro-5H-pyrrolo[2,3-d]pyrimidine-5-carboxamide], the Emax is 88% and the EC50 is 286 nM.

Turning to `Cc1nc2c(CCC(F)(F)C(F)(F)F)nc(-c3nc(N)c4c(n3)NC(=O)C4(C)c3ccc(F)cc3)cn2c1Br` (stereo not drawn) [Example 266A, 4-amino-2-(3-bromo-2-methyl-8-(3,3,4,4,4-pentafluorobutyl)imidazo[1,2-a]pyrazin-6-yl)-5-(4-fluorophenyl)-5-methyl-5H-pyrrolo[2,3-d]pyrimidin-6(7H)-one], the Emax was determined as 101% and the EC50 worked out at 141 nM.

As to `Nc1nc(-c2cn3ccnc3c(CCCC(F)(F)F)n2)nc2c1C(c1cccc(C(F)(F)F)n1)(C1CC1)C(=O)N2` (single isomer, unassigned) [Example 368B, 4-amino-5-cyclopropyl-2-(8-(4,4,4-trifluorobutyl)imidazo[1,2-a]pyrazin-6-yl)-5-(6-(trifluoromethyl)pyridin-2-yl)-5H-pyrrolo[2,3-d]pyrimidin-6(7H)-one], the Emax came to 151% and the half-maximal effective concentration (EC50) turned out to be 148 nM.

In the case of `CCCCc1nc(-c2nc(N)c3c(n2)NC(=O)C3(c2ccc(C(F)(F)F)cn2)C2CC2)cn2ccnc12` (stereo not drawn) [Example 133A, 4-amino-2-(8-butylimidazo[1,2-a]pyrazin-6-yl)-5-cyclopropyl-5-(5-(trifluoromethyl)pyridin-2-yl)-5H-pyrrolo[2,3-d]pyrimidin-6(7H)-one], the Emax stood at 129% and the EC50 came out at 37 nM.

Take `CC1(c2ccccc2)C(=O)Nc2nc(-c3cn4ccnc4c(Cc4cccc(F)c4)n3)nc(N)c21` (stereo not drawn) [Example 101B, 4-amino-2-(8-(3-fluorobenzyl)imidazo[1,2-a]pyrazin-6-yl)-5-methyl-5-phenyl-5H-pyrrolo[2,3-d]pyrimidin-6(7H)-one]: the Emax amounted to 116% and the EC50 is 34 nM.

Take `Nc1nc(-c2cn3ccnc3c(CCC(F)(F)C(F)(F)F)n2)nc2c1C(c1cccnc1)(C1CC1)C(=O)N2` (single isomer, unassigned) [Example 359B, 4-amino-5-cyclopropyl-2-(8-(3,3,4,4,4-pentafluorobutyl)imidazo[1,2-a]pyrazin-6-yl)-5-(pyridin-3-yl)-5H-pyrrolo[2,3-d]pyrimidin-6(7H)-one]: the Emax amounted to 108% and a half-maximal response (EC50) required 302 nM.

On to `CC(C)Cc1nc(-c2nc(N)c3c(n2)NC(=O)C3(C)c2ccc(F)cc2)cn2ccnc12` (stereo not drawn) [Example 19A, 4-amino-5-(4-fluorophenyl)-2-(8-isobutylimidazo[1,2-a]pyrazin-6-yl)-5-methyl-5H-pyrrolo[2,3-d]pyrimidin-6(7H)-one], for which the Emax turned out to be 113% and the EC50 was determined as 387 nM.

The term EC50 denotes the concentration at which the effect is half-maximal. Lower therefore signals an effect from little substance.

The record behind these values is US9796733B2, “Imidazo-pyrazine derivatives useful as soluble guanylate cyclase activators” (Merck Sharp & Dohme Corp., priority 2014, dated 2017).
